Experimental data: US20250312356A1, “TREATMENT OF DYSMENORRHEA” (priority 2024, published 2025)
Like-named read-outs stand apart in the source and are kept apart here.

Legend:
[1] = tested on: neurotransmitter receptors, re-uptake sites, or steroid receptors; assay: in vitro receptor binding study
[2] = tested on: estrogen, androgen, progestin and glucocorticoid receptors; assay: in vitro agonist or antagonist activity on steroid hormone receptors; format: biochemical
[3] = tested on: human volunteers of both sexes; assay: reflex activity and physiologic parameters after intranasal administration in volunteers; format: in vivo; conditions: 1.6 μg intranasal
Protocol: (§1) The half effective dose of this effect was 0.087 μg.
(§2) 16α,17α-Epoxyestr-4-en-10β-ol-3-one decreased parasympathetic system tone resulting in increased sympathetic activity and stimulation of β2 adrenergic receptors in the bronchiole smooth muscle that induced bronchodilation; • (b) increased skin conductance amplitude is the result of increased skin secretions, which are produced by preponderance of the sympathetic nervous system tone (or decreased parasympathetic tone); • (c) decreased body temperature is explained by increased activity of the posterior (adrenergic) hypothalamus and decreased parasympathetic tone (anterior hypothalamus).

[4] = tested on: bone marrow; assay: in vivo bone marrow micronucleus test
[5] = tested on: pregnant rabbits; assay: reproductive toxicity studies; format: in vivo; conditions: intravenous doses up to 2.5 mg/kg/day during organogenesis
[6] = Ames reverse mutation assay
[7] = tested on: isolated human nasal chemosensory neurons; assay: electrophysiological studies in isolated nasal chemosensory neurons; format: cell-based
[8] = tested on: rats, mice, rabbits and dogs; assay: acute and multidose (28 day) toxicity studies; format: in vivo
[9] = in vivo
[10] = tested on: women of reproductive age; assay: clinical study of changes in physiological parameters; format: in vivo, human; conditions: 0.5 μg nasal spray vs vehicle, 14 women
[11] = tested on: women of reproductive age; assay: clinical study of core body temperature and tone of the sympathoadrenergic system; format: in vivo, human; conditions: 1.6 μg nasal spray
Protocol: It also changed the tone of the sympathoadrenergic system (as assessed by measuring physiologic sinus arrhythmia) within 5 minutes of administration, and the effect persisted for 15 to 20 minutes.

[12] = tested on: menopausal women; assay: hot flashes after intranasal administration; format: in vivo, human
From the text: as §2

[13] = tested on: estrogen receptors; assay: in vitro receptor binding study
[14] = tested on: GABAA receptors, opioid receptors, or dopamine receptors; assay: in vitro receptor binding study
[15] = tested on: women diagnosed with PMDD
[16] = tested on: females with DSM-IV-defined PMDD; assay: Phase 2a study, daily symptom report pain cluster, cramps; format: in vivo, human
From the text: During a 3- to 5-week screening period, patients who presented to the clinic for bothersome PMDD symptoms (defined as “affected functioning”) were recruited. The Premenstrual Tension Syndrome scale was used for screening. After study eligibility criteria and PMDD symptom presence were confirmed at Visit 1, patients received single-blind placebo; those with no acute improvement were eligible for randomization study. Randomized patients presented for Visit 2 when PMDD symptoms were bothersome during the second cycle after entry. PH80 (0.9 μg) or placebo was administered intranasally; PMDD symptoms were evaluated 30 and 60 minutes later. Patients were then supplied with their assigned double-blind treatment for intranasal self-administration up to 4 times a day (PH80 0.9 μg/dose or matching placebo) for up to 6 consecutive days before the estimated menses onset in that cycle. On the first day of menses in the second cycle, a follow-up visit (Visit 3) occurred. 82 females were screened; 61 met eligibility criteria and were randomized to receive PH80 (n=33) or placebo (n=28). […] A total of 49 patients provided at least 1 post-treatment assessment and were included in the pain efficacy analysis.
Pain efficacy analysis for cramping was rated daily by the patient on a 5-point scale ranging from 0 (no symptoms at all) up to 4 (very severe). The overall pain cluster score and individual symptom ratings were compared post-hoc using two-sided T-tests, without adjustments for multiplicity or within-patient variance; means for each group were plotted for each reported day, and no imputation was made for missing data. Results are summarized in Table 2 and depicted in FIG. 3.

[17] = tested on: nasal chemosensory mucosa; assay: electrogram recorded from the surface of the nasal chemosensory mucosa; format: in vivo, human; conditions: intranasal
Protocol: as §1

Which “binding to neurotransmitter receptors, re-uptake sites, or steroid receptors” value [1] does the source give for `C[C@]12CCC3C(CCC4=CC(=O)CC[C@]43O)C1C[C@H]1O[C@H]12` (stereo partly drawn) [16α,17α-epoxyestr-4-en-10β-ol-3-one] here?
Its value is “no binding”.

What about the “agonist or antagonist activity on estrogen, androgen, progestin and glucocorticoid receptors” value [2] of the same compound?
Its value is “no agonist or antagonist activity”.

What about the “body core temperature (external ear canal)” value [3] of the same compound?
Its value is “decreased body core temperature”.

What about the cardiac rate [3] of the same compound?
The cardiac rate was “no significant change”.

And the “depth of the inspiratory cycle of respiration” value [3]?
The value was “significantly increased amplitude”.

What about the “latency of modulation of reflex activity after electrogram” value [3] of the same compound?
Its value is 5 to 10 s.

What about the respiration rate [3] of the same compound?
The respiration rate was “decreased respiration rate within physiologic range”.

And the “skeletal muscle tone (electromyogram, chin muscles)” value [3]?
The value was “decreased skeletal muscle tone (relaxation)”.

What about the “skin conductance (electrodermal activity)” value [3] of the same compound?
The value was “increased amplitude”.

What about the “mutagenic or clastogenic potential” value [4] of the same compound?
Its value is “no evidence of mutagenic or clastogenic potential”.

And the “effects on maternal or litter parameters” value [5]?
The value was “no adverse effects on maternal or litter parameters”.

And the “mutagenic or clastogenic potential” value [6]?
The value was “no evidence of mutagenic or clastogenic potential”.

And the “concentration giving maximal response (amplitude)” value ([7]; concentration-dependent amplitude)?
Its value is 10^−7 to 10^−6 M.

What about the inward currents ([7]; isolated human nasal chemosensory neurons) of the same compound?
The inward currents was “induced inward currents”.

And the “electrotonic depolarization of the nasal septal chemosensory mucosa” value ([7]; nasal septal chemosensory mucosa)?
The value was “electrotonic depolarization of the nasal septal chemosensory mucosa”.

And the “deaths, adverse clinical signs, effects on laboratory or pathology parameters” value ([8]; single and repeated intranasal and intravenous doses)?
Its value is “no deaths or adverse clinical signs or effects on laboratory or pathology parameters observed”.

And the tolerability ([8]; single and repeated intranasal doses (up to 100 μg/rat, 400 μg/rabbit, 600 μg/dog) and intravenous doses up to 2.5 mg/kg)?
Its tolerability is “well tolerated in all species tested”.

What about the systemic exposure [9] of the same compound?
Its systemic exposure is “lack of systemic exposure”.

What about the cardiac frequency [10] of the same compound?
Its cardiac frequency is “not statistically significant increase”.

And the core body temperature [10]?
Its core body temperature is “statistically significant decreases”.

What about the galvanic skin reflex [10] of the same compound?
The galvanic skin reflex was “statistically significant decreases”.

What about the respiratory frequency [10] of the same compound?
Its respiratory frequency is “statistically significant decreases”.

What about the skeletal muscle tone [10] of the same compound?
The skeletal muscle tone was “statistically significant decreases”.

What about the “decrease in core body temperature” value [11] of the same compound?
The value was 1±0.23 °C.

And the “latency of decrease in core body temperature” value [11]?
Its value is 0.5 to 4 min.

And the “persistence of decrease in core body temperature” value [11]?
The value was 9 ± 2.5 min.

What about the “persistence of effect on tone of the sympathoadrenergic system” value [11] of the same compound?
The value was 15 to 20 min.

And the “time to change of tone of the sympathoadrenergic system (physiologic sinus arrhythmia)” value [11]?
The value was at most 5 minutes.

And the hot flashes [12]?
Its hot flashes is “decreased number, severity and bother of hot flashes”.

And the “binding to estrogen receptors” value [13]?
The value was “does not bind”.

What about the “binding to GABAA receptors, opioid receptors, or dopamine receptors” value [14] of the same compound?
Its value is “does not bind”.

And the “cortical behavioral symptoms (headache, tension)” value ([15]; 0.9 μg intranasal aerosol)?
The value was “significant improvements”.

And the “hypothalamic behavioral symptoms (fatigue, anger, craving for foods)” value ([15]; 0.9 μg intranasal aerosol)?
The value was “significant improvements”.

And the “limbic system behavioral symptoms (mood swings, depression, lack of interest)” value ([15]; 0.9 μg intranasal aerosol)?
Its value is “significant improvements”.

What about the mean cramping score ([15]; Day 1, 29 women, scale 0 to 4) of the same compound?
The mean cramping score was 1.19.

What about the mean headache score ([15]; Day 1, scale 0 to 4) of the same compound?
The mean headache score was 1.14.

And the “difference in mean cramping scores vs placebo” value ([15]; Day 4, p<0.05, one-tail test)?
The value was “significant”.

And the “difference in mean headache scores vs placebo” value ([15]; Day 5, p<0.05, one-tail test)?
Its value is “significant”.

What about the “share of group reporting cramping symptoms” value ([15]; Day 6) of the same compound?
Its value is 17%.

What about the mean cramping score ([15]; Day 6, scale 0 to 4) of the same compound?
Its mean cramping score is 0.24.

And the mean headache score ([15]; Day 6, scale 0 to 4)?
Its mean headache score is 0.28.

And the persistence of improvements ([15]; single dose intranasal)?
Its persistence of improvements is “approximately 5 hours”.

And the “time to appearance of improvements” value ([15]; single dose intranasal)?
Its value is at most 30 min.

And the serious adverse events ([15]; up to 4 times daily)?
Its serious adverse events is “No serious adverse events were reported”.

And the side effects ([15]; up to 4 times daily)?
The side effects was “minimal and similar to administration of placebo”.

And the “cramps score, mean” value ([16]; Day 1, 0.9 μg/dose up to 4 times a day, 5-point scale 0 to 4)?
Its value is 1.26.

What about the “cramps score, mean” value ([16]; Day 2) of the same compound?
Its value is 1.00.

What about the “cramps score, mean” value ([16]; Day 3) of the same compound?
Its value is 0.59.

And the “cramps score, mean” value ([16]; Day 4)?
Its value is 0.52.

And the “cramps score, mean” value ([16]; Day 5)?
The value was 0.42.

What about the “cramps score, mean” value ([16]; Day 6, n=19, P=0.01 vs placebo) of the same compound?
Its value is 0.21.

What about the “half effective dose of electrogram activation” value [17] of the same compound?
The value was 0.087 µg.

And the “activation of the electrogram” value ([17]; microgram quantities)?
The value was “concentration dependent activation”.
